Measurements as given in US10647690B2, “2,3-epoxy succinyl derivative, preparation method and use thereof” (Institute of Pharmacology and Toxicology Academy of …, priority 2016, dated 2020).
Read-outs that look alike come from different tables or passages of the source.

Target: T1, Cathepsin K (Homo sapiens, UniProt P43235)
T1 construct: purchased Biovision K150-100
T1 sequence (P43235 115-329): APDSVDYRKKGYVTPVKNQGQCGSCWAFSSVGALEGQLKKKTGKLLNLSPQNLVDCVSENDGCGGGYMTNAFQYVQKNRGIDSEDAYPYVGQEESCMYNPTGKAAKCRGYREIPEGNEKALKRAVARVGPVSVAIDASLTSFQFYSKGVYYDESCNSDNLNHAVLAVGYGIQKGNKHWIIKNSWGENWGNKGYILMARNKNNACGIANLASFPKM
Assay: Preliminary screening of Cathepsin K (Cathepsin K Inhibitor Screening Kit K150-100, Biovision)
Type: biochemical
Conditions: relative inhibition rate vs 10 μM FF-FMK control; for inhibition at 1 µM: 1 μM compound; for inhibition at 10 µM: 10 μM compound
Protocol: 1. Method for preliminary screening of Cathepsin K:
Preliminary screening of Cathepsin K was performed by using Cathepsin K Inhibitor Screening Kit (Product No. K150-100) from Biovision Company.
1.1.1 Preparation of Cathepsin K enzyme solution: Cathepsin K enzyme (40 μl) and Cathepsin K reagent (80 μl) were added to Cathepsin K buffer (3.88 ml), and were mixed well, to prepare Cathepsin K enzyme solution with a volume of 4 ml, which was placed on ice for further use.
1.1.2 Preparation of a compound solution: different compounds were separately weighed and dissolved in DMSO (methyl sulfoxide), to prepare solutions at a concentration of 30 mM as stock solutions, and for some insoluble compounds, they were prepared into solutions at a concentration of 10 mM as stock solutions; the 30 mM and 10 mM compound stock solutions were diluted to 1 mM and 100 μM DMSO solutions, respectively; 1 mM and 100 μM compound DMSO solutions (2 μl) were separately added to CTSK buffer (18 μl), to prepare compound solutions at a final concentration of 100 μM and 10 μM, respectively, wherein the concentration of DMSO was 10%.
1.1.3 Preparation of Cathepsin K substrate solution: Cathepsin K substrate (160 μl) was added to Cathepsin K buffer (3.44 ml), and mixed homogeneously, to prepare Cathepsin K substrate solution with a volume of 3.6 ml, which was placed on ice for further use.
1.2 Method for screening Cathepsin K inhibitor: Cathepsin K enzyme solution (prepared in Item 1.1.1) was added to a 384-well plate (ProxiPlate-384 Plus, Perkinelmer) at 10 μl/well, and centrifuged at 1000 rpm for 1 min; the compound solution (prepared in Item 1.1.2) was then added at 2 µl/well, and centrifuged at 1000 rpm for 1 min, and every concentration was repeated in two wells; the plate was placed in a 25° C. incubator for 15 min; Cathepsin K substrate solution was then added at 8 μl/well, and centrifuged at 1000 rpm for 1 min; and finally, the fluorescence signal was read in Enspire, wherein the exciting light was at a wavelength of 400 nm, the emitting light was at a wavelength of 505 nm, and continuous reading was performed at 37° C. for 120 min.
1.3 Data analysis: the slope (S) for all the samples was calculated by ΔRFU (RFU2−RFU1) and time ΔT (T2−T1), including negative control (Enzyme Control, EC) and positive control (Inhibitor Control, IC: 10 μM FF-FMK), and the calculation formula was as followed: Relative inhibition rate %=(SEC−SS)/(SEC−SIC)*100.

[1] = replicate 1, read-out: Inhibition % (1 μM) replicate 1
[2] = replicate 2, read-out: Inhibition % (1 μM) replicate 2
[3] = replicate 1, read-out: Inhibition % (10 μM) replicate 1
[4] = replicate 2, read-out: Inhibition % (10 μM) replicate 2

Row | inhibition at 1 µM [1] [%] | inhibition at 1 µM [2] [%] | inhibition at 10 µM [3] [%] | inhibition at 10 µM [4] [%] | SMILES
1 | 36.6 | 33.1 | 34.9 | 36 | CCOC(=O)[C@H]1O[C@@H]1C(=O)N[C@@H](CCSC)C(=O)NCCc1ccc(C)cc1 [Compound 33, (2s, 3s)-2-ethoxycarbonyl-3-[2-[(s)-4-methylthio-1-carbonyl-1-(p-methylphenylethylamino)butane]formylamino]epoxysuccinic acid]
2 | 31.6 | 36.6 | 33 | 39.1 | CCCC(C)NC(=O)[C@H](CCSC)NC(=O)[C@H]1O[C@@H]1C(=O)OCC (some centres unmarked) [Compound 6, (2s, 3s)-2-ethoxycarbonyl-3-[2-[(s)-4-methylthio-1-carbonyl-1-(1-methylbutylamino)butane]formylamino]epoxysuccinic acid]
3 | 30.5 | 36.6 | 44.1 | 45.4 | CCOC(=O)[C@H]1O[C@@H]1C(=O)N[C@@H](CCSC)C(=O)NC(C)(C)CC [Compound 31, (2s, 3s)-2-ethoxycarbonyl-3-[2-[(s)-4-methylthio-1-carbonyl-1-(tert-pentylamino)butane]formylamino]epoxysuccinic acid]
4 | 15.6 | 23.6 | 31.6 | 34.9 | CCCNC(=O)[C@H](CCSC)NC(=O)[C@H]1O[C@@H]1C(=O)OCC [Compound 4, (2s, 3s)-2-ethoxycarbonyl-3-[2-[(s)-4-methylthio-1-carbonyl-1-(propylamino)butane]formylamino]epoxysuccinic acid]
5 | 16.1 | 37.7 | 70.1 | 63 | CCOC(=O)[C@H]1O[C@@H]1C(=O)N[C@@H](CSCc1ccccc1)C(=O)N1CCC(c2ccccc2)CC1 [Compound 23, (2s, 3s)-2-ethoxycarbonyl-3-[2-[(s)-3-benzylthio-1-carbonyl-1-(4-phenylpiperidinyl)propane]formylamino]epoxysuccinic acid]
6 | 26.9 | 32.2 | 34.8 | 31.7 | CCCNC(=O)[C@H](CSCc1ccccc1)NC(=O)[C@H]1O[C@@H]1C(=O)OCC [Compound 17, (2s, 3s)-2-ethoxycarbonyl-3-[2-[(s)-3-benzylthio-1-carbonyl-1-(propylamino)propane]formylamino]epoxysuccinic acid]
7 | 32.1 | 30.8 | 64.2 | 61 | CCOC(=O)[C@H]1O[C@@H]1C(=O)N[C@@H](CCSC)C(=O)N1CC(C)CC(C)C1 (some centres unmarked) [Compound 41, (2s, 3s)-2-ethoxycarbonyl-3-[2-[(s)-4-methylthio-1-carbonyl-1-(3,5-dimethylpiperidinyl)butane]formylamino]epoxysuccinic acid]
8 | 38.9 | 39.2 | 60.8 | 63.6 | CCOC(=O)[C@H]1O[C@@H]1C(=O)N[C@@H](CSCc1ccccc1)C(=O)NC(C)(C)CC [Compound 16, (2s, 3s)-2-ethoxycarbonyl-3-[2-[(s)-3-benzylthio-1-carbonyl-1-(tert-pentylamino)propane]formylamino]epoxysuccinic acid]
9 | 25.6 | 18.1 | 29.2 | 28.8 | CCOC(=O)[C@H]1O[C@@H]1C(=O)N[C@@H](CCSC)C(=O)NCC(C)C [Compound 9, (2s, 3s)-2-ethoxycarbonyl-3-[2-[(s)-4-methylthio-1-carbonyl-1-(isobutylamino)butane]formylamino]epoxysuccinic acid]
10 | 15.4 | 26.6 | 44 | 51.7 | CCOC(=O)[C@H]1O[C@@H]1C(=O)N[C@@H](CCSC)C(=O)N1CCOCC1 [Compound 12, (2s, 3s)-2-ethoxycarbonyl-3-[2-[(s)-4-methylthio-1-carbonyl-1-(morpholinyl)butane]formylamino]epoxysuccinic id]
11 | 36.8 | 37.9 | 44.3 | 41.4 | CCOC(=O)[C@H]1O[C@@H]1C(=O)N[C@@H](CCSC)C(=O)N1CCSC1 [Compound 38, (2s, 3s)-2-ethoxycarbonyl-3-[2-[(s)-4-methylthio-1-carbonyl-1-(tetrahydrothiazolyl)butane]formylamino]epoxysuccinic acid]
